Tests used:
Experiment in all cases: Inhibitory effect on growth of human cancer cells (in vitro), WST-8
Assay type in all cases: cell-based
[1] = system: human colorectal cancer HCT116 cells; conditions: Homo sapiens, HCT-116, 96 h, 96 hours culture
Method: (§1) Each pyrrole compound of the present invention was studied for its effects on the growth of human non-small cell lung cancer A549 cells and human colorectal cancer HT-29 cells and HCT116 cells. The cells of each line were suspended in an RPMI1640 medium supplemented with 10% fetal bovine serum and inoculated at a cell density of 1000 cells/50 μL/well to a 96-well plate. After overnight culture, each compound diluted with a medium was added thereto at a concentration of 50 μL/well, and the cells were further cultured for 96 hours. After the completion of culture, WST-8 (Seikagaku Corp.) was added thereto at a concentration of 10 μL/well, and the cells were cultured at 37° C. for approximately 1 hour under 5% CO2 conditions, followed by measurement of absorbance at 450 nm.

[2] = system: human colorectal cancer HT-29 cells; conditions: Homo sapiens, HT-29, 96 h, 96 hours culture, read-out: IC50 (nM) HT29
Method: as §1

[3] = system: human non-small cell lung cancer A549 cells; conditions: Homo sapiens, A549, 96 h, 96 hours culture
Method: as §1

SMILES	IC50 [1]	IC50 [2]	IC50 [3]
Cc1[nH]c(-c2nnn(CCN)n2)c(C)c1C(=O)c1cccc(Br)c1 [Compound 103, (5-(2-(2-aminoethyl)-2H-tetrazol-5-yl)-2,4-dimethyl-1H-pyrrol-3-yl)(3-bromophenyl)methanone]	182 nM	43.3 nM	87.8 nM
CC(=O)OCCn1nnc(-c2[nH]c(C)c(C(=O)c3cccc(Br)c3)c2C)n1 [Compound 104, 2-(5-(4-(3-bromobenzoyl)-3,5-dimethyl-1H-pyrrol-2-yl)-2H-tetrazol-2-yl)ethyl acetate]	8.5 nM	8.5 nM	11 nM
Cc1[nH]c(-c2nnn(CCO)n2)c(C)c1C(=O)c1cccc(C2CC2)c1 [Compound 115, (3-cyclopropylphenyl)(5-(2-(2-hydroxyethyl)-2H-tetrazol-5-yl)-2,4-dimethyl-1H-pyrrol-3-yl)methanone]	41 nM	42.5 nM	49.2 nM
Cc1c(-c2nnn(CCO)n2)[nH]c(C=O)c1C(=O)c1cccc(Br)c1 [Compound 117, 3-(3-bromobenzoyl)-5-(2-(2-hydroxyethyl)-2H-tetrazol-5-yl)-4-methyl-1H-pyrrole-2-carboaldehyde]	118 nM	42.1 nM	83 nM
Cc1c(-c2nnn(CCO)n2)[nH]c(C(F)F)c1C(=O)c1cccc(Br)c1 [Compound 119, (3-bromophenyl)(2-(difluoromethyl)-5-(2-(2-hydroxyethyl)-2H-tetrazol-5-yl)-4-methyl-1H-pyrrol-3-yl)methanone]	145 nM	42.6 nM	50.1 nM
COc1ccc(C(=O)c2c(C=O)[nH]c(-c3nnn(CCOC(C)=O)n3)c2C)cc1Br [Compound 124, 2-(5-(4-(3-bromo-4-methoxybenzoyl)-5-formyl-3-methyl-1H-pyrrol-2-yl)-2H-tetrazol-2-yl)ethyl acetate]	37.8 nM	30.4 nM	38.6 nM
COc1ccc(C(=O)c2c(C=O)[nH]c(-c3nnn(CCO)n3)c2C)cc1Br [Compound 125, 3-(3-bromo-4-methoxybenzoyl)-5-(2-(2-hydroxyethyl)-2H-tetrazol-5-yl)-4-methyl-1H-pyrrole-2-carboaldehyde]	93.2 nM	35.2 nM	45.8 nM
COc1ccc(C(=O)c2c(C(F)F)[nH]c(-c3nnn(CCOC(C)=O)n3)c2C)cc1Br [Compound 126, 2-(5-(4-(3-bromo-4-methoxybenzoyl)-5-(difluoromethyl)-3-methyl-1H-pyrrol-2-yl)-2H-tetrazol-2-yl)ethyl acetate]	38.2 nM	33.1 nM	38.2 nM
COc1ccc(C(=O)c2c(C(F)F)[nH]c(-c3nnn(CCO)n3)c2C)cc1Br [Compound 127, (3-bromo-4-methoxyphenyl)(2-(difluoromethyl)-5-(2-(2-hydroxyethyl)-2H-tetrazol-5-yl)-4-methyl-1H-pyrrol-3-yl)methanone]	40.4 nM	36.9 nM	44.7 nM
COc1ccc(C(=O)c2c(CO)[nH]c(-c3nnn(CCOC(C)=O)n3)c2C)cc1Br [Compound 128, 2-(5-(4-(3-bromo-4-methoxybenzoyl)-5-(hydroxymethyl)-3-methyl-1H-pyrrol-2-yl)-2H-tetrazol-2-yl)ethyl acetate]	22.4 nM	27.4 nM	27.8 nM
COc1ccc(C(=O)c2c(CO)[nH]c(-c3nnn(CCO)n3)c2C)cc1Br [Compound 129, (3-bromo-4-methoxyphenyl)(5-(2-(2-hydroxyethyl)-2H-tetrazol-5-yl)-2-(hydroxymethyl)-4-methyl-1H-pyrrol-3-yl)methanone]	41.2 nM	34.2 nM	46.9 nM
COc1ccc(C(=O)c2c(C(C)O)[nH]c(-c3nnn(CCOC(C)=O)n3)c2C)cc1Br (stereo not drawn) [Compound 130, 2-(5-(4-(3-bromo-4-methoxybenzoyl)-5-(1-hydroxyethyl)-3-methyl-1H-pyrrol-2-yl)-2H-tetrazol-2-yl)ethyl acetate]	36.9 nM	30.7 nM	35.5 nM

Reference: patent US20140343017A1, “PYRROLE COMPOUND” (Kabushiki Kaisha Yakult Honsha, priority 2012, published 2014)
